Experimental data taken from ChEMBL document CHEMBL3860091, “Synthesis and activity of newly designed aroxyalkyl or aroxyethoxyethyl derivatives of piperazine on the cardiovascular and the central nervous systems” (Bioorg Med Chem Lett, 2016).
The source made the active and inactive calls. The rule behind the calls is not given here.

How the values were obtained:
Rattus norvegicus [1] = assay: Hypotensive activity in normotensive anesthetized Wistar rat assessed as systolic blood pressure at 0.5 mg/kg, iv measured 10 mins post dose (reference value: 107.4 to 148.3 mmHg); format: functional
Rattus norvegicus [2] = assay: Hypotensive activity in normotensive anesthetized Wistar rat assessed as systolic blood pressure at 0.5 mg/kg, iv measured 5 mins post dose (reference value: 107.4 to 148.3 mmHg); format: functional
[3] = Antidepressant-like activity in albino Swiss (CD-1) mouse assessed as immobility time at 2.5 mg/kg, ip administered 30 mins prior to test measured for last 4 mins of 6 mins observation by forced swim test (reference value: 178.3 +/- 12.3 sec); format: functional, organism-based
Mus musculus = assay: Toxicity in albino Swiss (CD-1) mouse assessed as effect on spontaneous locomotor activity by measuring number of crossings at 10 mg/kg, ip administered 30 mins prior to test measured for last 4 mins of 6 mins observation (reference value: 191.5 to 225.4); format: organism-based; settings: in vivo
Rattus norvegicus [4] = assay: Hypotensive activity in normotensive anesthetized Wistar rat assessed as systolic blood pressure at 0.1 mg/kg, iv measured 60 mins post dose (reference value: 107.4 to 148.3 mmHg); format: functional
Rattus norvegicus [5] = assay: Hypotensive activity in normotensive anesthetized Wistar rat assessed as diastolic blood pressure at 0.1 mg/kg, iv measured 20 mins post dose (reference value: 81.6 to 115.2 mmHg); format: functional
Rattus norvegicus [6] = assay: Inhibition of adrenaline-induced pressor response in normotensive Wistar rat at 1 mg/kg, iv measured 5 mins post dose; format: functional, organism-based
Rattus norvegicus [7] = assay: Hypotensive activity in normotensive anesthetized Wistar rat assessed as systolic blood pressure at 0.1 mg/kg, iv measured 5 mins post dose (reference value: 107.4 to 148.3 mmHg); format: functional
Rattus norvegicus [8] = assay: Hypotensive activity in normotensive anesthetized Wistar rat assessed as systolic blood pressure at 0.1 mg/kg, iv measured 30 mins post dose (reference value: 107.4 to 148.3 mmHg); format: functional
Rattus norvegicus [9] = assay: Hypotensive activity in normotensive anesthetized Wistar rat assessed as systolic blood pressure at 0.1 mg/kg, iv measured 10 mins post dose (reference value: 107.4 to 148.3 mmHg); format: functional
Rattus norvegicus [10] = assay: Inhibition of methoxamine-induced pressor response in normotensive Wistar rat at 1 mg/kg, iv measured 5 mins post dose; format: functional, organism-based
Rattus norvegicus [11] = assay: Hypotensive activity in normotensive anesthetized Wistar rat assessed as diastolic blood pressure at 0.1 mg/kg, iv measured 10 mins post dose (reference value: 81.6 to 115.2 mmHg); format: functional
Rattus norvegicus [12] = assay: Hypotensive activity in normotensive anesthetized Wistar rat assessed as systolic blood pressure at 0.1 mg/kg, iv measured 20 mins post dose (reference value: 107.4 to 148.3 mmHg); format: functional
Rattus norvegicus [13] = assay: Hypotensive activity in normotensive anesthetized Wistar rat assessed as diastolic blood pressure at 0.1 mg/kg, iv measured 60 mins post dose (reference value: 81.6 to 115.2 mmHg); format: functional
Rattus norvegicus [14] = assay: Hypotensive activity in normotensive anesthetized Wistar rat assessed as diastolic blood pressure at 0.1 mg/kg, iv measured 5 mins post dose (reference value: 81.6 to 115.2 mmHg); format: functional
Rattus norvegicus [15] = assay: Hypotensive activity in normotensive anesthetized Wistar rat assessed as diastolic blood pressure at 0.1 mg/kg, iv measured 30 mins post dose (reference value: 81.6 to 115.2 mmHg); format: functional

Row | SMILES | Activity (Rattus norvegicus [1]) [mmHg] | Activity (Rattus norvegicus [2]) [mmHg] | TIME [3] [h] | Activity (Mus musculus) | Activity (Rattus norvegicus [4]) [mmHg] | Activity (Rattus norvegicus [5]) [mmHg] | inhibition (Rattus norvegicus [6]) | Activity (Rattus norvegicus [7]) [mmHg] | Activity (Rattus norvegicus [8]) [mmHg] | Activity (Rattus norvegicus [9]) [mmHg] | inhibition (Rattus norvegicus [10]) | Activity (Rattus norvegicus [11]) [mmHg] | Activity (Rattus norvegicus [12]) [mmHg] | Activity (Rattus norvegicus [13]) [mmHg] | Activity (Rattus norvegicus [14]) [mmHg] | Activity (Rattus norvegicus [15]) [mmHg]
1 | Cc1cccc(Cl)c1OCCCCN1CCN(c2ccccc2)CC1.Cl.Cl | 135.3 | 135 |  |  |  |  |  |  |  |  |  |  |  |  |  | 
2 | COc1ccccc1N1CCN(CCOCCOc2cccc(C)c2C)CC1.Cl.Cl |  |  | 0.0447 | 190 |  |  |  |  |  |  |  |  |  |  |  | 
3 | COc1ccccc1N1CCN(CCCCOc2c(C)cccc2C)CC1.Cl | 122.7 | 124.2 |  |  | 127.7 | 104 | Active | 142.7 | 130.3 | 138.3 | Active | 112.7 | 131.7 | 101.3 | 112.7 | 103
